Patent US20220081412A1, “QUINOLINYL-PYRAZINE-CARBOXAMIDE COMPOUNDS AND USES THEREOF” (The Regents of the University of Michigan, priority 2018, published 2022)

Tested on: MIA PaCa-2 cells
Test: Bru-seq analysis for nascent RNA synthesis (log2FC of genes, GSEA gene sets)
Assay type: cell-based, human
Details: 4 h
[1] = gene set HALLMARK_IL2_STAT5_SIGNALING
[2] = gene set HALLMARK_IL6_JAK_STAT3_SIGNALING
[3] = gene set HALLMARK_MTORC1_SIGNALING
[4] = gene set HALLMARK_OXIDATIVE_PHOSPHORYLATION
[5] = gene set HALLMARK_PI3K_AKT_MTOR_SIGNALING
[6] = gene set HALLMARK_TNFA_SIGNALING_VIA_NFKB
[7] = gene set HALLMARK_UNFOLDED_PROTEIN_RESPONSE
[8] = gene set HALLMARK_UV_RESPONSE_UP
[9] = gene set HALLMARK_XENOBIOTIC_METABOLISM
[10] = gene set HELLER_SILENCED_BY_METHYLATION_DN
[11] = gene set KAN_RESPONSE_TO_ARSENIC_TRIOXIDE
[12] = gene set KEGG_ACUTE_MYELOID_LEUKEMIA
[13] = gene set KEGG_ADIPOCYTOKINE_SIGNALING_PATHWAY
[14] = gene set KEGG_ALDOSTERONE_REGULATED_SODIUM_REABSORPTION
[15] = gene set KEGG_ANTIGEN_PROCESSING_AND_PRESENTATION
[16] = gene set KEGG_CITRATE_CYCLE_TCA_CYCLE
[17] = gene set KEGG_ENDOMETRIAL_CANCER
[18] = gene set KEGG_FATTY_ACID_METABOLISM
[19] = gene set KEGG_FRUCTOSE_AND_MANNOSE_METABOLISM
[20] = gene set KEGG_GLYCEROLIPID_METABOLISM
[21] = gene set KEGG_GLYCOLYSIS_GLUCONEOGENESIS
[22] = gene set KEGG_INSULIN_SIGNALING_PATHWAY
[23] = gene set KEGG_MAPK_SIGNALING_PATHWAY
[24] = gene set KEGG_MTOR_SIGNALING_PATHWAY
[25] = gene set KEGG_OXIDATIVE_PHOSPHORYLATION
[26] = gene set KEGG_PARKINSONS_DISEASE
[27] = gene set KEGG_PORPHYRIN_AND_CHLOROPHYLL_METABOLISM
[28] = gene set KEGG_PPAR_SIGNALING_PATHWAY
[29] = gene set KEGG_PYRUVATE_METABOLISM
[30] = gene set KEGG_SNARE_INTERACTIONS_IN_VESICULAR_TRANSPORT
[31] = gene set KEGG_SYSTEMIC_LUPUS_ERYTHEMATOSUS
[32] = gene set KEGG_VALINE_LEUCINE_AND_ISOLEUCINE_DEGRADATION
[33] = gene set PODAR_RESPONSE_TO_ADAPHOSTIN_UP
[34] = gene set REACTOME_CHOLESTEROL_BIOSYNTHESIS
[35] = gene set REACTOME_RNA_POL_I_PROMOTER_OPENING
[36] = gene set REACTOME_UNFOLDED_PROTEIN_RESPONSE
[37] = gene set SCHMIDT_POR_TARGETS_IN_LIMB_BUD_UP
[38] = gene set WILCOX_RESPONSE_TO_PROGESTERONE_UP
[39] = gene set ZHANG_TLX_TARGETS_36HR_UP
[40] = top downregulated genes, MIA PaCa-2 cells

## CCN(CC)CCCC(C)Nc1cnc(C(=O)Nc2cc(C)cc3cccnc23)cn1 (stereo not shown) [J4, 5-((5-(diethylamino)pentan-2-yl)amino)-N-(6-methylquinolin-8-yl)pyrazine-2-carboxamide]
[1]
  ES: 0.424
  NES: 1.597
[2]
  ES: 0.443
  NES: 1.405
[3]
  ES: 0.626
  NES: 2.450
Gene set HALLMARK_MYOGENESIS
  ES: 0.541
  NES: 1.885
[4]
  ES: 0.403
  NES: 1.601
Gene set HALLMARK_P53_PATHWAY
  ES: 0.565
  NES: 2.171
Gene set HALLMARK_PEROXISOME
  ES: 0.457
  NES: 1.612
[5]
  ES: 0.566
  NES: 2.033
[6]
  ES: 0.536
  NES: 2.043
[7]
  ES: 0.582
  NES: 2.173
[8]
  ES: 0.478
  NES: 1.769
[9]
  ES: 0.409
  NES: 1.503
[10]
  ES: 0.714
  NES: 2.396
Gene set HORTON_SREBF_TARGETS
  ES: 0.911
  NES: 2.446
[11]
  ES: 0.655
  NES: 2.270
[12]
  ES: 0.524
  NES: 1.701
[13]
  ES: 0.547
  NES: 1.770
[14]
  ES: 0.556
  NES: 1.480
[15]
  ES: 0.536
  NES: 1.506
[16]
  ES: 0.561
  NES: 1.683
[17]
  ES: 0.482
  NES: 1.543
[18]
  ES: 0.507
  NES: 1.505
[19]
  ES: 0.547
  NES: 1.529
[20]
  ES: 0.573
  NES: 1.640
[21]
  ES: 0.578
  NES: 1.735
[22]
  ES: 0.455
  NES: 1.663
Gene set KEGG_LYSOSOME
  ES: 0.611
  NES: 2.224
[23]
  ES: 0.393
  NES: 1.504
Gene set KEGG_MELANOGENESIS
  ES: 0.526
  NES: 1.713
[24]
  ES: 0.530
  NES: 1.631
[25]
  ES: 0.464
  NES: 1.705
[26]
  ES: 0.424
  NES: 1.536
[27]
  ES: 0.613
  NES: 1.657
[28]
  ES: 0.583
  NES: 1.733
Gene set KEGG_PROSTATE_CANCER
  ES: 0.445
  NES: 1.564
[29]
  ES: 0.525
  NES: 1.529
[30]
  ES: 0.535
  NES: 1.642
[31]
  ES: 0.689
  NES: 2.185
[32]
  ES: 0.491
  NES: 1.536
Gene set LEONARD_HYPDXIA
  ES: 0.811
  NES: 2.480
Gene set LE_EGR2_TARGETS_DN
  ES: 0.689
  NES: 2.287
[33]
  ES: 0.678
  NES: 2.520
Gene set QI_HYPDXIA
  ES: 0.624
  NES: 2.258
Gene set REACTOME_AMYLO1DS
  ES: 0.753
  NES: 2.309
[34]
  ES: 0.913
  NES: 2.477
[35]
  ES: 0.820
  NES: 2.377
[36]
  ES: 0.651
  NES: 2.246
[37]
  ES: 0.921
  NES: 2.469
[38]
  ES: 0.642
  NES: 2.380
[39]
  ES: 0.615
  NES: 2.339
Gene set ZHANG_TLX_TARGETS_UP
  ES: 0.710
  NES: 2.353
[40]
  log2FC ABCA1: −1.14
  log2FC AGAP6: −0.85
  log2FC AKAP5: −0.77
  log2FC CACNG8: −0.75
  log2FC CCND1: −0.67
  log2FC FERMT1: −0.91
  log2FC GPR75-ASB3: −0.89
  log2FC GPR135: −1.30
  log2FC HRH4: −1.09
  log2FC MX2: −0.78
  log2FC NEXN: −0.76
  log2FC NOG: −0.93
  log2FC NOXRED1: −0.73
  log2FC NPIPB11: −0.67
  log2FC NPR2: −1.08
  log2FC NTSR1: −0.89
  log2FC PTCH2: −0.72
  log2FC RFLNB: −0.79
  log2FC SPDYA: −1.18
  log2FC SYCE2: −0.98
  log2FC TAS2R20: −0.81
  log2FC TNS4: −1.05
  log2FC TSPAN4: −0.68
  log2FC TXNRD3NB: −0.72
  log2FC ZDHHC11: −0.86
